Assay [1] has as its target T1, Integrin alpha-IIb/beta-3 (Homo sapiens, UniProt P05106+P08514). The assay is described as follows: Antagonist activity at FITC-tagged alphaIIbbeta3 integrin in human platelet assessed as inhibition of FITC-fibrinogen binding on washed platelets.
Assay [2] addresses T1, Integrin alpha-IIb/beta-3. The experiment in a line: Antagonist activity at FITC-tagged […] integrin in human platelet rich plasma. The class given is functional, cell-free.
Assay [3] in a line: Antagonist activity at FITC-tagged […] integrin in human platelet rich plasma.

T1 sequence (P05106 27-788 limits assumed): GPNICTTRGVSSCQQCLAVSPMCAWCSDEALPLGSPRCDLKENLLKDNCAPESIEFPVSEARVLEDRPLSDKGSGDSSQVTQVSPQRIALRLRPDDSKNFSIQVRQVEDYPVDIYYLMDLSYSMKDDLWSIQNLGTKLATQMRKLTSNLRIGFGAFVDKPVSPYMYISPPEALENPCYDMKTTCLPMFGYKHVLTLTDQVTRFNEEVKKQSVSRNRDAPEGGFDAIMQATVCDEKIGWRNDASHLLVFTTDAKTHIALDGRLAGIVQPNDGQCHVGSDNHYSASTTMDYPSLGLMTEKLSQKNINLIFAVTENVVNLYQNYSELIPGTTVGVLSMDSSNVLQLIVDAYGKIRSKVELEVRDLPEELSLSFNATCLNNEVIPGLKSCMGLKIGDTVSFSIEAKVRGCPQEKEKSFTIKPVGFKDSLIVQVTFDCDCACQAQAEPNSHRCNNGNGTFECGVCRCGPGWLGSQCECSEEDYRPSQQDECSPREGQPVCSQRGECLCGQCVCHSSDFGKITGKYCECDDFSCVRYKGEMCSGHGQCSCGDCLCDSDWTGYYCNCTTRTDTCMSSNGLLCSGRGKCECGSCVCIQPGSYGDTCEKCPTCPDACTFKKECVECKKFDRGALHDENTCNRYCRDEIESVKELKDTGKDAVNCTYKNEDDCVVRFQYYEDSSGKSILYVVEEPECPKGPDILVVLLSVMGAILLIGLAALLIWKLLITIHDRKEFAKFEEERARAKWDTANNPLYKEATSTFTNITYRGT
T1 sequence (P08514 32-887 limits assumed): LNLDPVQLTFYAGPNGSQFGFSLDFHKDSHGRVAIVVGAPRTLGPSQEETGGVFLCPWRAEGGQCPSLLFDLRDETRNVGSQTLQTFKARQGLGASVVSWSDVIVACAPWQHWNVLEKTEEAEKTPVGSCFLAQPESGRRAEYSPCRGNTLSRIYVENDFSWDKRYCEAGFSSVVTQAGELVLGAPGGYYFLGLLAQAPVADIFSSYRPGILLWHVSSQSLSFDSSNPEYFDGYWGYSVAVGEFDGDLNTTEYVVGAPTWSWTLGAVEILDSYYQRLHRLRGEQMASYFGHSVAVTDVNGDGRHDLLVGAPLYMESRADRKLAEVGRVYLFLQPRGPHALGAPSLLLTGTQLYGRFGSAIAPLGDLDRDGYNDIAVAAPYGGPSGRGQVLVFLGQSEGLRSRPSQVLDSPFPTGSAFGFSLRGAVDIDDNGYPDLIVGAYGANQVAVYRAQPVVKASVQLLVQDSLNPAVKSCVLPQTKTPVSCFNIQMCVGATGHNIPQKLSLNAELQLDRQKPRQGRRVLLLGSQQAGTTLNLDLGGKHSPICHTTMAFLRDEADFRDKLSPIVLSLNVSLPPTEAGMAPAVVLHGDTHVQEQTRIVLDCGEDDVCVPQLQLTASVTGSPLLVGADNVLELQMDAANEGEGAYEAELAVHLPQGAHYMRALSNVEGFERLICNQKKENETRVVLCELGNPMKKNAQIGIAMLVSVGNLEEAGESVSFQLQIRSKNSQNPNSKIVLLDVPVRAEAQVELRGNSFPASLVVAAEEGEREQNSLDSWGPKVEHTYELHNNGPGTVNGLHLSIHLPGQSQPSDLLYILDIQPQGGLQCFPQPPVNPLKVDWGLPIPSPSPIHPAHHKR
T1 sequence (P08514 891-1039 limits assumed): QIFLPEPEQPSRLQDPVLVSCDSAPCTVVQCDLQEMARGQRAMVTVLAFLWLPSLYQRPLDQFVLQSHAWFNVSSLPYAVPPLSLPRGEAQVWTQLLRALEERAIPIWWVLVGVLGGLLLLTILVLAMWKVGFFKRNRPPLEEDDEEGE

Usually IC50 stands for the concentration that inhibits the measured activity by half. Turning to `COc1ccc(C(CC(=O)O)NC(=O)CCC(=O)Nc2ccc3c(c2)CNCC3)cc1` (centres undefined), the figures for the IC50 in assay [1] and in assay [2] were 0.0035 µM and 0.31 µM, respectively. The like results for `O=C(O)CC(NC(=O)CCC(=O)Nc1ccc2c(c1)CNCC2)c1ccccc1` (centres undefined) were, in that order, 0.00101 µM and 0.013 µM. As for `O=C(O)CC(NC(=O)CCC(=O)Nc1ccc2c(c1)CNCC2)c1ccc(Cl)cc1` (centres undefined), the IC50 in assay [1] was determined as 0.065 µM; in assay [2] it was 2 µM. The like results for `O=C(O)CC(NC(=O)CCC(=O)Nc1ccc2c(c1)CNCC2)c1ccccc1F` (centres undefined) were, in that order, 0.005 µM and 0.57 µM. The corresponding values for `O=C(O)CC(NC(=O)CCC(=O)Nc1ccc2c(c1)CNCC2)c1cccc(F)c1` (centres undefined) are 1.1 µM and 10 µM. The like results for `COc1ccc(C(CC(=O)O)NC(=O)c2cccc(C(=O)Nc3ccc4c(c3)CNCC4)c2)cc1` (centres undefined) were, in that order, 0.0008 µM and 0.017 µM. As to `O=C(O)CC(NC(=O)c1cccc(C(=O)Nc2ccc3c(c2)CNCC3)c1)c1ccccc1` (centres undefined), the results for the IC50 in assay [1] and in assay [2] were 0.001 µM and 0.025 µM, respectively. The corresponding values for `O=C(O)CC(NC(=O)CCC(=O)Nc1ccc2c(c1)CNCC2)c1ccc2c(c1)OCO2` (centres undefined) are 0.0004 µM and 0.09 µM. The like results for `COc1ccc(C(CC(=O)O)NC(=O)CCCC(=O)Nc2ccc3c(c2)CNCC3)cc1OC` (centres undefined) were, in that order, 0.005 µM and 0.127 µM. The corresponding values for `COc1ccc(C(CC(=O)O)NC(=O)CCC(=O)Nc2ccc3c(c2)CNCC3)cc1OC` (centres undefined) are 0.00063 µM and 0.064 µM.

Consider `O=C(O)CC(NC(=O)CCCC(=O)Nc1ccc2c(c1)CNCC2)c1ccc2c(c1)OCO2` (centres undefined), for which the IC50 in assay [1] was 0.00078 µM; in assay [2], 0.053 µM. In the case of `Cc1ccc(C(CC(=O)O)NC(=O)CCC(=O)Nc2ccc3c(c2)CNCC3)cc1` (centres undefined), the concentration for half-maximal inhibition (IC50) in assay [1] is 0.0009 µM; in assay [2], 0.096 µM. The corresponding values for `COc1ccc(C(CC(=O)O)NC(=O)CCCC(=O)Nc2ccc3c(c2)CNCC3)cc1` (centres undefined) are 0.018 µM and 4.2 µM. The corresponding values for `COc1ccc(C(CC(=O)O)NC(=O)CCC(=O)Nc2ccc3c(c2)CNC3)cc1` (centres undefined) are 0.0026 µM and 0.16 µM.

Take `COc1ccc(C(CC(=O)O)NC(=O)CCC(=O)Nc2ccc3c(c2)CNC3)cc1OC` (centres undefined): the figures for the IC50 in assay [1] and in assay [2] were 0.009 µM and 0.89 µM, respectively.

Consider `COc1ccc(C(CC(=O)O)NC(=O)c2cccc(C(=O)Nc3ccc4c(c3)CNCC4)c2)cc1OC` (centres undefined), for which the half-maximal inhibitory concentration (IC50) stood at 0.0007 µM in assay [1] and 0.0116 µM in assay [2]. The corresponding values for `O=C(O)CC(NC(=O)CCC(=O)Nc1ccc2c(c1)CNC2)c1ccc2c(c1)OCO2` (centres undefined) are 0.00022 µM and 0.031 µM.

As to `O=C(O)CC(NC(=O)CCC(=O)Nc1ccc2c(c1)CNC2)c1ccccc1` (centres undefined), 0.86 µM corresponded to half-maximal inhibition in assay [3] (IC50).

In assay [2], `CC(C)Oc1ccc(C(CC(=O)O)NC(=O)CCC(=O)Nc2ccc3c(c2)CNCC3)cc1` (centres undefined) yielded an IC50 of 0.087 µM. Regarding `O=C(O)CC(NC(=O)CCC(=O)Nc1ccc2c(c1)CNCC2)c1ccc(F)cc1` (centres undefined), the concentration for half-maximal inhibition (IC50) in assay [1] was found to be 0.001 µM; in assay [2], 0.0089 µM. The like results for `O=C(O)CCNC(=O)CCC(=O)Nc1ccc2c(c1)CNCC2` were, in that order, 0.00121 µM and 0.03 µM. In assay [2], `O=C(O)CC(NC(=O)CCC(=O)Nc1ccc2c(c1)CNCC2)c1cccc2ccccc12` (centres undefined) returned a concentration for half-maximal inhibition (IC50) of 5.2 µM. Consider `CC(C)Oc1ccc(C(CC(=O)O)NC(=O)CCC(=O)Nc2ccc3c(c2)CNC3)cc1` (centres undefined), for which the results for the IC50 in assay [1] and in assay [2] were 0.006 µM and 0.105 µM, respectively. In assay [2], `CCOc1ccc(C(CC(=O)O)NC(=O)CCC(=O)Nc2ccc3c(c2)CNCC3)cc1OC` (centres undefined) returned a half-inhibitory concentration (IC50) of 0.51 µM.

The record behind these values is ChEMBL document CHEMBL1208747, “Derivatives of tetrahydroisoquinoline: synthesis and initial evaluation of novel non-peptide antagonists of the alpha(IIb)beta(3)-integrin” (Bioorg Med Chem Lett, 2010).
